Experimental data from ChEMBL document CHEMBL3137667, “[Drug-induced liver injury; fourteenth updated edition of the bibliographic database of liver injuries and related drugs]” (Gastroenterol Clin Biol, 2004).

Columns and labels:
[1] = Highest frequency of acute liver toxicity observed during clinical trials, expressed as a percentage. [column '% AIGUE' in source]; conditions: human
[2] = human
[3] = human, serum, 4383 h
[4] = human; remark: listed apart in the source
[5] = human, serum
[6] = human; remark: listed apart in the source
[7] = human; remark: listed apart in the source
[8] = human; remark: listed apart in the source
[9] = human, serum; remark: listed apart in the source
[10] = human; remark: listed apart in the source
[11] = human; remark: listed apart in the source
[12] = Highest frequency of moderate liver toxicity observed during clinical trials, expressed as a percentage. [column '% BIOL' in source]; conditions: human
[13] = human; remark: listed apart in the source
[14] = human; remark: listed apart in the source
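Wherever Hepatotoxicity (association with vascular disease) is given: count of indexed literature references reporting vascular liver injury in humans, e.g. peliosis hepatitis, hepatic veno-occlusive disease or Budd-Chiari syndrome.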
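Wherever Hepatotoxicity (benign tumour) is given: value is a count of indexed literature references citing a benign tumour confirmed by histopathology.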
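Wherever Hepatotoxicity (choleostasis) is given: human cholestatic liver injury, shown by histopathology or by peak ALT or AST elevation over alkaline phosphatase ratio below 2, value counts indexed literature reports.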
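Wherever Hepatotoxicity (chronic liver disease) is given: chronic liver injury confirmed by histopathology or persistently raised serum aminotransferase activity beyond 6 months, value given as the count of indexed literature references.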
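Wherever Hepatotoxicity (cirrhosis) is given: value is a count of indexed literature references reporting cirrhosis confirmed by histopathology.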
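Wherever Hepatotoxicity (cytolytic) is given: human cytolytic liver injury, shown by histopathology or by a ratio above 5 of peak ALT or AST elevation to alkaline phosphatase elevation, value counts indexed references.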
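Wherever Hepatotoxicity (granulomatous hepatitis) is given: value is a count of indexed literature references reporting granulomatous liver disease confirmed by histopathology.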
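Wherever Hepatotoxicity (malignant tumour) is given: malignant tumour confirmed by histopathology, value gives the count of indexed literature references reporting it.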
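Wherever Hepatotoxicity (severe hepatitis) is given: human clinical data: severe hepatitis, meaning potentially life-threatening liver failure or clinically observed cases, the value counts how many indexed literature references report it.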
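Wherever Hepatotoxicity (steatosis) is given: steatosis confirmed by histopathology, value is the count of indexed references.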

SMILES	Hepatotoxicity (acute) [1] [%]	Hepatotoxicity (granulomatous hepatitis) [2]	Hepatotoxicity (chronic liver disease) [3]	Hepatotoxicity (association with vascular disease) [4]	Hepatotoxicity (moderate) [5]	Hepatotoxicity (benign tumour) [6]	Hepatotoxicity (malignant tumour) [7]	Hepatotoxicity (cirrhosis) [8]	Hepatotoxicity (acute) [9]	Hepatotoxicity (steatosis) [10]	Hepatotoxicity (choleostasis) [11]	Hepatotoxicity (moderate) [12] [%]	Hepatotoxicity (severe hepatitis) [13]	Hepatotoxicity (cytolytic) [14]
CN(C)C(=O)CCCOC(=O)C(C)(C)Oc1ccc(Cl)cc1 [CLOFIBRIDE]	0	0	0	0	1	0	0	0	0	0	0	0	0	0
NS(=O)(=O)c1cc2c(cc1C(F)(F)F)NC(Cc1ccccc1)NS2(=O)=O (stereo not given) [BENDROFLUMETHIAZIDE]	0	0	0	0	0	0	0	0	1	0	0	0	0	0
CO[C@H]1[C@@H](O)[C@H](N)[C@@H](O[C@H]2O[C@H]([C@H](C)N)CC[C@H]2N)[C@H](O)[C@@H]1N(C)C(=O)CN [ASTROMICIN]	0	0	0	0	1	0	0	0	0	0	0	7.3	0	0
NCCC(O)(P(=O)(O)O)P(=O)(O)O [PAMIDRONIC ACID]	0	0	0	0	3	0	0	0	0	0	0	2.7	0	0
CC(C)(CNC(N)=O)NCC(O)COC(=O)c1ccccc1F (stereo not given) [FLESTOLOL]	0	0	0	0	2	0	0	0	0	0	0	6.7	0	0
CCCC(=O)O[C@H]1[C@H](C)O[C@@H](O[C@H]2[C@H](N(C)C)[C@@H](O)[C@H](O[C@H]3[C@@H](CC=O)C[C@@H](C)[C@@H](O)/C=C/C=C/C[C@@H](C)OC(=O)C[C@@H](O)[C@@H]3OC)O[C@@H]2C)C[C@@]1(C)OC(=O)CC [ROKITAMYCIN]	0	0	0	0	4	0	0	0	0	0	0	5	0	0
CC1(C)S[C@@H]2[C@H](N3C(=O)[C@@H](c4ccccc4)NC3(C)C)C(=O)N2[C@H]1C(=O)O [HETACILLIN]	0	0	0	0	0	0	0	0	1	0	0	0	0	1
O=c1[nH]c(=O)n([C@@H]2O[C@H](CO)[C@@H](O)[C@@H]2O)cc1/C=C/Br [SORIVUDINE]	0	0	0	0	1	0	0	0	0	0	0	2	0	0
Cc1cccc(C)c1OCC(=O)N[C@@H](Cc1ccccc1)[C@@H](O)C[C@H](Cc1ccccc1)NC(=O)[C@H](C(C)C)N1CCCNC1=O [LOPINAVIR]	8	0	0	0	1	0	0	0	2	0	0	0	0	2
CC(C)(C)NC(=O)[C@H]1CC[C@H]2[C@@H]3CC[C@H]4NC(=O)C=C[C@]4(C)[C@H]3CC[C@]12C [FINASTERIDE]	0	0	0	0	1	0	0	0	0	0	0	9	0	0
COc1ccc(CCN(C)CCCOc2ccc(S(=O)(=O)c3c(C(C)C)cn4ccccc34)cc2)cc1OC [FANTOFARONE]	0	0	0	0	1	0	0	0	0	0	0	2.7	0	0
CCOC(=O)OC(C)OC(=O)[C@@H]1N2C(=O)[C@@H](NC(=O)[C@H](N)c3ccccc3)[C@H]2SC1(C)C (stereo not given in full) [BACAMPICILLIN]	0	0	0	0	2	0	0	0	0	0	0	0	0	0
C[C@@H]1CN(c2c(F)c(N)c3c(=O)c(C(=O)O)cn(C4CC4)c3c2F)C[C@H](C)N1 [SPARFLOXACIN]	0	0	0	0	29	0	0	0	0	0	0	20	0	0
COCC1=C(C(=O)O)N2C(=O)[C@@H](NC(=O)/C(=N\OC)c3csc(N)n3)[C@H]2SC1 [CEFPODOXIME]	0	0	0	0	29	0	0	0	0	0	0	33.3	0	0
CC[C@H]1OC(=O)[C@H](C)[C@@H](O[C@H]2C[C@@](C)(OC)[C@@H](O)[C@H](C)O2)[C@H](C)[C@@H](O[C@@H]2O[C@H](C)C[C@H](N(C)C)[C@H]2O)[C@](C)(O)C[C@@H](C)[C@@H]2N[C@@H](COCCOC)O[C@H]([C@H]2C)[C@]1(C)O [DIRITHROMYCIN]	0	0	0	0	3	0	0	0	0	0	0	28.6	0	0
